From patent publication US12479831B2, “Substituted N(-methyl-D3)pyridazine-3-carboxamide or M-(methyl-D3)-nicotinamide compounds as IL-12, IL-23 and/or IFNα modulators” (BRISTOL-MYERS SQUIBB COMPANY, priority 2020, dated 2025)

Tested on: IFNα-Induced STAT Phosphorylation in Human Whole Blood
Experiment: IFNα-Induced STAT Phosphorylation in Human Whole Blood
Assay type: cell-based
Settings: 1 h incubation with compound, 1000 U/mL recombinant human IFNα A/D for 15 min, pSTAT5 (pY694) median fluorescence intensity in CD3 positive population, read-out: hWB IC50

[2H]C([2H])([2H])NC(=O)c1nnc(Nc2cc3n(n2)CCN(C)C3=O)cc1Nc1cccc(-c2ncc(F)cn2)c1OC [Example 107, 4-((3-(5-Fluoropyrimidin-2-yl)-2-methoxyphenyl)amino)-N-(methyl-d3)-6-((5-methyl-4-oxo-4,5,6,7-tetrahydropyrazolo[1,5-a]pyrazin-2-yl)amino)pyridazine-3-carboxamide]
IC50: 81 nM

[2H]C([2H])([2H])NC(=O)c1nnc(Nc2cn(C)nn2)cc1Nc1cccc(-c2ncc(F)cn2)c1OC [Example 91, 4-((3-(5-fluoropyrimidin-2-yl)-2-methoxyphenyl)amino)-N-(methyl-d3)-6-((1-methyl-1H-1,2,3-triazol-4-yl)amino)pyridazine-3-carboxamide]
IC50: 167 nM

[2H]C([2H])([2H])NC(=O)c1nnc(Nc2cc3n(n2)CCN(C2CC2)C3=O)cc1Nc1cccc(-c2ncc(F)cn2)c1OC [Example 109, 6-((5-cyclopropyl-4-oxo-4,5,6,7-tetrahydropyrazolo[1,5-a]pyrazin-2-yl)amino)-4-((3-(5-fluoropyrimidin-2-yl)-2-methoxyphenyl)amino)-N-(methyl-d3)pyridazine-3-carboxamide]
IC50: 262 nM

[2H]C([2H])([2H])NC(=O)c1nnc(NC(=O)C2CC2)cc1Nc1cccc(-c2ncc(C3CCOC3)cn2)c1OC (stereo not drawn) [Example 55, 6-(Cyclopropanecarboxamido)-4-((2-methoxy-3-(5-(tetrahydrofuran-3-yl)pyrimidin-2-yl)phenyl)amino)-N-(methyl-d3)pyridazine-3-carboxamide]
IC50: 47 nM

[2H]C([2H])([2H])NC(=O)c1cnc(Nc2cc(C#N)n(C)n2)cc1Nc1cccc(-c2ncccn2)c1OC [Example 61, 6-((5-Cyano-1-methyl-1H-pyrazol-3-yl)amino)-4-((2-methoxy-3-(pyrimidin-2-yl)phenyl)amino)-N-(methyl-d3)nicotinamide]
IC50: 225 nM

[2H]C([2H])([2H])NC(=O)c1cnc(Nc2ccc(C(F)(F)F)nn2)cc1Nc1cccc(-c2ncccn2)c1OC [Example 76, 4-((2-methoxy-3-(pyrimidin-2-yl)phenyl)amino)-N-(methyl-d3)-6-((6-(trifluoromethyl)pyridazin-3-yl)amino)nicotinamide]
IC50: 77 nM

[2H]C([2H])([2H])NC(=O)c1nnc(NC(=O)C2CC2)cc1Nc1cccc(-c2ncc(N3CCN(C)C3=O)cn2)c1OC [Example 116]
IC50: 73 nM

[2H]C([2H])([2H])NC(=O)c1nnc(NC(=O)C2CC2)cc1Nc1cc(F)cc(-c2cnc(C(C)O)cn2)c1OC (stereo not drawn) [Example 24, 6-(cyclopropanecarboxamido)-4-((5-fluoro-3-(5-(1-hydroxyethyl)pyrazin-2-yl)-2-methoxyphenyl)amino)-N-(methyl-d3)pyridazine-3-carboxamide]
IC50: 167 nM

[2H]C([2H])([2H])NC(=O)c1nnc(NC(=O)C2CC2)cc1Nc1cccc(-c2ncc(C(O)(CF)CF)cn2)c1OC [Example 29, 6-(cyclopropanecarboxamido)-4-((3-(5-(1,3-difluoro-2-hydroxypropan-2-yl)pyrimidin-2-yl)-2-methoxyphenyl)amino)-N-(methyl-d3)pyridazine-3-carboxamide]
IC50: 39 nM

[2H]C([2H])([2H])NC(=O)c1nnc(NC(=O)C2CC2)cc1Nc1cccc(-c2cnc(N3CCN(C(C)=O)CC3)cn2)c1OC [Example 59, 4-((3-(5-(4-acetylpiperazin-1-yl)pyrazin-2-yl)-2-methoxyphenyl)amino)-6-(cyclopropanecarboxamido)-N-(methyl-d3)pyridazine-3-carboxamide]
IC50: 121 nM

[2H]C([2H])([2H])NC(=O)c1cnc(Nc2cc(=O)n(C)cn2)cc1Nc1cccc(-c2ncc(F)cn2)c1OC [Example 77, 4-((3-(5-fluoropyrimidin-2-yl)-2-methoxyphenyl)amino)-N-(methyl-d3)-6-((1-methyl-6-oxo-1,6-dihydropyrimidin-4-yl)amino)nicotinamide]
IC50: 228 nM

[2H]C([2H])([2H])NC(=O)c1nnc(NC(=O)C2CC2)cc1Nc1cccc(-c2cc(=O)n(C)cn2)c1OC [Example 12, 6-(cyclopropanecarboxamido)-4-((2-methoxy-3-(1-methyl-6-oxo-1,6-dihydropyrimidin-4-yl)phenyl)amino)-N-(methyl-d3)pyridazine-3-carboxamide]
IC50: 204 nM
